Earlier results on 2 compounds are cited in patent publication US7029655B2, “Magnetic resonance imaging agents for in vivo labeling and detection of amyloid deposits” (California Institute of Technology, priority 2000, dated 2006).

The conditions of this data set: thermodynamic stability of the Gd(III) chelate.

For the compound `O=C([O-])CN(CCN(CC(=O)[O-])CC(=O)[O-])CCN(CC(=O)[O-])CC(=O)[O-].[Gd+3]` [Gd(DTPA)^2−], the “stability constant (K) / formation constant, logK” value is given as 22.4. For `O=C([O-])CN1CCN(CC(=O)[O-])CCN(CC(=O)[O-])CCN(CC(=O)[O-])CC1.[Gd+3]` [Gd-DOTA], the “stability constant (K) / formation constant, logK” value is given as 28.5.
